Laboratory results as given in patent publication US11464770B2, “Anticancer pharmaceutical composition” (NATIONAL CANCER CENTER, priority 2016, dated 2022).
Read-outs that look alike come from different tables or passages of the source.

How the values were obtained:
melanoma cell lines = assay: Cell based assay, cell viability (CellTiter-Glo), melanoma cell lines; details: Homo sapiens; LOX-IMVI cell line
Description: (§1) Commercially available bladder cancer, prostate cancer, lung cancer, breast cancer, blood cancer, pancreatic cancer, colorectal cancer, brain cancer, neuroblastoma, melanoma, liver cancer, cervical carcinoma, ovarian cancer, renal cancer, and papilloma cell lines were each treated with trypsin-EDTA and cultured, followed by being seeded in each well of a 96 well plate. After 24 hours of treatment at constant temperature, the respective cells were treated with the candidate compound so that a final concentration became 0 to 2 μM. The treated cells were additionally cultured for 72 hours, and cell viability was measured by using an ATP detection method (CellTiter-Glo® Luminescent Cell Viability Assay, Promega).

[1] = test system: ovarian cancer cell lines; assay: Cell based assay, cell viability (CellTiter-Glo), ovarian cancer cell lines; details: Homo sapiens; OVCAR-3 cells
Description: as §1

[2] = test system: breast cancer cell lines (e.g. MDA-MB-231, SK-BR-3, MDA-MB-468, HCC1954); assay: Cell based assay, cell viability (CellTiter-Glo), breast cancer cell lines
Description: as §1

[3] = Breast cancer cell line MDA-MB-231-L/DOX, 72 hours, CellTiter-Glo, read-out: IC50, MDA-MB-231-L/DOX
[4] = Homo sapiens, Breast cancer cell line BT-20, 72 hours, CellTiter-Glo, read-out: IC50, BT-20
[5] = Homo sapiens, Breast cancer cell line HCC1395, 72 hours, CellTiter-Glo, read-out: IC50, HCC1395
[6] = Homo sapiens, Breast cancer cell line HCC1954, 72 hours, CellTiter-Glo, read-out: IC50, HCC1954
[7] = Homo sapiens, Breast cancer cell line JIMT-1, 72 hours, CellTiter-Glo, read-out: IC50, JIMT-1
[8] = Homo sapiens, Breast cancer cell line MCF7, 72 hours, CellTiter-Glo, read-out: IC50, MCF7
[9] = Homo sapiens, Breast cancer cell line MDA-MB-231, 72 hours, CellTiter-Glo, read-out: IC50, MDA-MB-231
[10] = Homo sapiens, Breast cancer cell line MDA-MB-468, 72 hours, CellTiter-Glo, read-out: IC50, MDA-MB-468
[11] = Homo sapiens, Breast cancer cell line SK-BR-3, 72 hours, CellTiter-Glo, read-out: IC50, SK-BR-3
[12] = Homo sapiens, BT-20 cells, 72 hours treatment, CellTiter-Glo cell viability, read-out: IC50, Breast cancer cell line BT-20
[13] = Homo sapiens, HCC1395 cells, 72 hours treatment, CellTiter-Glo cell viability, read-out: IC50, Breast cancer cell line HCC1395
[14] = Homo sapiens, HCC1954 cells, 72 hours treatment, CellTiter-Glo cell viability, read-out: IC50, Breast cancer cell line HCC1954
[15] = Homo sapiens, JIMT-1 cells, 72 hours treatment, CellTiter-Glo cell viability, read-out: IC50, Breast cancer cell line JIMT-1
[16] = Homo sapiens, MCF7 cells, 72 hours treatment, CellTiter-Glo cell viability, read-out: IC50, Breast cancer cell line MCF7
[17] = Homo sapiens, MDA-MB-231 cells, 72 hours treatment, CellTiter-Glo cell viability, read-out: IC50, Breast cancer cell line MDA-MB-231
[18] = Homo sapiens, MDA-MB-468 cells, 72 hours treatment, CellTiter-Glo cell viability, read-out: IC50, Breast cancer cell line MDA-MB-468
[19] = Homo sapiens, SK-BR-3 cells, 72 hours treatment, CellTiter-Glo cell viability, read-out: IC50, Breast cancer cell line SK-BR-3
[20] = MDA-MB-231-L/DOX cells, 72 hours treatment, CellTiter-Glo cell viability, read-out: IC50, Breast cancer cell line MDA-MB-231-L/DOX

SMILES	IC50 (melanoma cell lines)	IC50 [1]	IC50 [2, 3]	IC50 [2, 4]	IC50 [2, 5]	IC50 [2, 6]	IC50 [2, 7]	IC50 [2, 8]	IC50 [2, 9]	IC50 [2, 10]	IC50 [2, 11]	IC50 [2, 12]	IC50 [2, 13]	IC50 [2, 14]	IC50 [2, 15]	IC50 [2, 16]	IC50 [2, 17]	IC50 [2, 18]	IC50 [2, 19]	IC50 [2, 20]
CSc1c(C(C)=O)c(=O)c2c(Cl)ccc(Br)c2n1C [Compound 5, 3-acetyl-8-bromo-5-chloro-1-methyl-2-(methylthio)quinolin-4(1H)-one]	> 2000 nM	> 2000 nM	> 2000 nM	> 2000 nM	> 10000 nM	> 2000 nM	> 10000 nM	> 2000 nM	> 2000 nM	> 2000 nM	> 2000 nM									
CC(=O)c1c([S+]([O-])Cc2cccc(S(F)(F)(F)(F)F)c2)[nH]c2c(Br)ccc(Cl)c2c1=O (stereo not shown) [Compound 77, 3-acetyl-8-bromo-5-chloro-2-((3-(pentafluoro--sulfanyl)benzyl)sulfinyl)quinolin-4(1H)-one]	1160 nM	1130 nM	> 2000 nM	> 2000 nM	> 10000 nM	> 2000 nM	> 10000 nM	> 2000 nM	> 2000 nM	> 2000 nM	1440 nM									
CC(=O)c1c([S+](C)[O-])n(C(=O)c2ccc(Br)cc2)c2c(Br)ccc(Cl)c2c1=O (stereo not shown) [Compound 9, 3-acetyl-8-bromo-1-(4-bromobenzoyl)-5-chloro-2-(methylsulfinyl)quinolin-4(1H)-one]	1050 nM	580 nM	> 2000 nM	> 2000 nM	> 10000 nM	> 2000 nM	> 10000 nM	> 2000 nM	> 2000 nM	> 2000 nM	850 nM									
CC(=O)c1c([S+](C)[O-])n(C(C)=O)c2c(Br)ccc(Cl)c2c1=O (stereo not shown) [Compound 19, 1,1′-(8-bromo-5-chloro-2-(methylsulfinyl)-4-oxoquinoline-1,3(4H)-diyl)bis(ethan-1-one)]	> 2000 nM	> 2000 nM	> 2000 nM	> 2000 nM	> 10000 nM	> 2000 nM	> 10000 nM	> 2000 nM	> 2000 nM	> 2000 nM	> 2000 nM									
CC(=O)c1c(S(C)(=O)=O)n(S(=O)(=O)c2ccc(C(C)(C)C)cc2)c2c(Br)ccc(Cl)c2c1=O [Compound 41, 3-acetyl-8-bromo-1-((4-(tert-butyl)phenyl)sulfonyl)-5-chloro-2-(methylsulfonyl)quinolin-4(1H)-one]	> 2000 nM	> 2000 nM	> 2000 nM	> 2000 nM	> 10000 nM	> 2000 nM	> 10000 nM	> 2000 nM	> 2000 nM	> 2000 nM	> 2000 nM									
CC(=O)c1c([S+]([O-])Cc2ccccc2C#N)[nH]c2c(Br)ccc(Cl)c2c1=O (stereo not shown) [Compound 58, 2-(((3-acetyl-8-bromo-5-chloro-4-oxo-1,4-dihydroquinolin-2-yl)sulfinyl)methyl)benzonitrile]	880 nM	700 nM	> 2000 nM	> 2000 nM	> 10000 nM	> 2000 nM	> 10000 nM	> 2000 nM	> 2000 nM	> 2000 nM	620 nM									
COc1cccc2[nH]c([S+]([O-])Cc3cc(C)on3)c(C(C)=O)c(=O)c12 (stereo not shown) [Compound 94, 3-acetyl-5-methoxy-2-(((5-methylisoxazol-3-yl)methyl)sulfinyl)quinolin-4(1H)-one]	> 2000 nM	1100 nM										> 2000 nM	> 10000 nM	> 2000 nM	> 10000 nM	> 2000 nM	> 2000 nM	1850 nM	1850 nM	> 2000 nM
COc1ccccc1Sc1[nH]c2c(Br)ccc(Cl)c2c(=O)c1C(C)=O [Compound 14, 3-acetyl-8-bromo-5-chloro-2-((2-methoxyphenyl)thio)quinolin-4(1H)-one]	> 2000 nM	> 2000 nM	> 2000 nM	> 2000 nM	> 10000 nM	> 2000 nM	> 10000 nM	> 2000 nM	> 2000 nM	> 2000 nM	> 2000 nM									
CC(=O)c1c(SCc2cccc(I)c2)[nH]c2c(Br)ccc(Cl)c2c1=O [Compound 47, 3-acetyl-8-bromo-5-chloro-2-((3-iodobenzyl)thio)quinolin-4(1H)-one]	> 2000 nM	> 2000 nM	> 2000 nM	> 2000 nM	> 10000 nM	> 2000 nM	> 10000 nM	> 2000 nM	> 2000 nM	> 2000 nM	> 2000 nM									
CC(=O)c1c([S+]([O-])Cc2ccc(SC(F)(F)F)cc2)[nH]c2c(Cl)ccc(Cl)c2c1=O (stereo not shown) [Compound 79, 3-acetyl-5,8-dichloro-2-((4-((trifluoromethyl)thio)benzyl)sulfinyl)quinolin-4(1H)-one]	> 2000 nM	> 2000 nM	> 2000 nM	> 2000 nM	> 10000 nM	> 2000 nM	> 10000 nM	> 2000 nM	> 2000 nM	> 2000 nM	> 2000 nM									
CC(=O)c1c([S+](C)[O-])[nH]c2c(Br)ccc(Cl)c2c1=O (stereo not shown) [Compound 1, 3-acetyl-8-bromo-5-chloro-2-(methylsulfinyl)quinolin-4(1H)-one]	1500 nM	700 nM	> 2000 nM	> 2000 nM	> 10000 nM	> 2000 nM	> 10000 nM	> 2000 nM	> 2000 nM	> 2000 nM	1090 nM									
CC(=O)c1c(S(C)(=O)=O)n(C(=O)c2ccc(Br)cc2)c2c(Br)ccc(Cl)c2c1=O [Compound 21, 3-acetyl-8-bromo-1-(4-bromobenzoyl)-5-chloro-2-(methylsulfonyl)quinolin-4(1H)-one]	> 2000 nM	> 2000 nM	> 2000 nM	> 2000 nM	> 10000 nM	> 2000 nM	> 10000 nM	> 2000 nM	> 2000 nM	> 2000 nM	> 2000 nM									
CC(=O)c1c([S+]([O-])Cc2ccc(N)nc2)[nH]c2c(Br)ccc(Cl)c2c1=O (stereo not shown) [Compound 100, 3-acetyl-2-(((6-aminopyridin-3-yl)methyl)sulfinyl)-8-bromo-5-chloroquinolin-4(1H)-one]	> 2000 nM	> 2000 nM										> 2000 nM	> 10000 nM	> 2000 nM	> 10000 nM	> 2000 nM	> 2000 nM	> 2000 nM	> 2000 nM	> 2000 nM
CC(=O)c1c([S+]([O-])Cc2ccc(C(F)(F)F)o2)[nH]c2c(F)ccc(F)c2c1=O (stereo not shown) [Compound 81, 3-acetyl-5,8-difluoro-2-(((5-(trifluoromethyl)furan-2-yl)methyl)sulfinyl)quinolin-4(1H)-one]	> 2000 nM	> 2000 nM	> 2000 nM	> 2000 nM	> 10000 nM	> 2000 nM	> 10000 nM	> 2000 nM	> 2000 nM	> 2000 nM	> 2000 nM									
CC(=O)c1c([S+]([O-])Cc2ccccc2)nc2c(Br)ccc(Cl)c2c1O (stereo not shown) [Compound 53, 1-(2-(benzylsulfinyl)-8-bromo-5-chloro-4-hydroxyquinolin-3-yl)ethan-1-one]	> 2000 nM	> 2000 nM	> 2000 nM	> 2000 nM	> 10000 nM	> 2000 nM	> 10000 nM	> 2000 nM	> 2000 nM	> 2000 nM	> 2000 nM									
CC(=O)c1c([S+]([O-])c2ccc(Br)cc2)[nH]c2c(Br)ccc(Cl)c2c1=O (stereo not shown) [Compound 17, 3-acetyl-8-bromo-2-((4-bromophenyl)sulfinyl)-5-chloroquinolin-4(1H)-one]	> 2000 nM	> 2000 nM	> 2000 nM	> 2000 nM	> 10000 nM	> 2000 nM	> 10000 nM	> 2000 nM	> 2000 nM	> 2000 nM	> 2000 nM									
CC(=O)c1c([S+]([O-])Cc2ccc(S(F)(F)(F)(F)F)cc2F)[nH]c2c(Br)ccc(Cl)c2c1=O (stereo not shown) [Compound 69, 3-acetyl-8-bromo-5-chloro-2-((2-fluoro-4-(pentafluoro-16-sulfanyl)benzyl)sulfinyl)quinolin-4(1H)-one]	1120 nM	1130 nM	> 2000 nM	> 2000 nM	> 10000 nM	> 2000 nM	> 10000 nM	> 2000 nM	1370 nM	> 2000 nM	1450 nM									
CC(=O)c1c([S+]([O-])Cc2ccc(C(=O)c3ccccc3)cc2)[nH]c2c(Br)ccc(Cl)c2c1=O (stereo not shown) [Compound 63, 3-acetyl-2-((4-benzoylbenzyl)sulfinyl)-8-bromo-5-chloroquinolin-4(1H)-one]	> 2000 nM	> 2000 nM	> 2000 nM	> 2000 nM	> 10000 nM	> 2000 nM	> 10000 nM	> 2000 nM	> 2000 nM	> 2000 nM	> 2000 nM									
CC(=O)c1c(SCc2cccc(F)c2)[nH]c2c(Br)ccc(Cl)c2c1=O [Compound 49, 3-acetyl-8-bromo-5-chloro-2-((3-fluorobenzyl)thio)quinolin-4(1H)-one]		> 2000 nM	> 2000 nM	> 2000 nM	> 10000 nM	> 2000 nM	> 10000 nM	> 2000 nM	> 2000 nM	> 2000 nM	> 2000 nM									
